Assay results as given in patent publication US7851445B2, “Angiogenic heparin-binding epitopes, peptide amphiphiles, self-assembled compositions and related methods of use” (Northwestern University, priority 2005, dated 2010).
Where a SMILES comes first, the peptide text is derived from it. The star is where a group is joined. Palmitoyl = CCCCCCCCCCCCCCCC(=O)*

What was measured:
[1] = Isothermal titration calorimetry of heparin into HBPA solution; settings: ITC, heparin titrated into HBPA in water, fit for a single type of binding site
From the text: Isothermal titration calorimetry was used to titrate increments of heparin independently into both the HBPAs and measured the heat released upon binding as a function of the molar ratio. The data obtained was integrated and fitted to a nonlinear function as previously described (Fromm, J. R., et al, “Differences in the Interaction of Heparin with Arginine and Lysine and the Importance of These Basic-Amino-Acids in the Binding of Heparin to Acidic Fibroblast Growth-Factor” Arch. Biochem. Biophys. 323 (1997) 279) to obtain an association constant of 10^7 in both cases (see FIGS. 3E and 3F). Despite similarity in their binding constants, the binding interaction of HBPA-1 and HBPA-2 were energetically very different. […] Such results can be explained with reference to their respective structures. HBPA-1 has hydrophobic residues on the periphery of its peptide chain and the increase in entropy is possibly due to displacement of solvent water molecules from these residues upon heparin interaction.
Characterization of the self-assembly. […] The images were analyzed using the Leica LCS imaging software. […] A frequency sweep experiment was performed at 3% strain with a ten-minute wait time (both determined by independently performing an amplitude sweep and a time strain experiment) to obtain 17 data points between angular frequencies of 0.1 to 10 rad/s. […]

[2] = Solubility in water; format: physicochemical

Row | solubility in water [2] | Structure (SMILES) | association constant [1]
1 | readily soluble in water | CCCCCCCCCCCCCCCC(=O)N[C@@H](C)C(=O)N[C@@H](C)C(=O)N[C@@H](C)C(=O)N[C@@H](C)C(=O)NCC(=O)NCC(=O)NCC(=O)N[C@@H](CC(C)C)C(=O)N[C@@H](CCCNC(=N)N)C(=O)N[C@@H](CCCCN)C(=O)N[C@@H](CCCCN)C(=O)N[C@@H](CC(C)C)C(=O)NCC(=O)N[C@@H](CCCCN)C(=O)N[C@@H](C)C(N)=O [HBPA-1] (Palmitoyl-AAAAGGGLRKKLGKA-NH2) | 10^7
2 | readily soluble in water | CCCCCCCCCCCCCCCC(=O)N[C@@H](C)C(=O)N[C@@H](C)C(=O)N[C@@H](C)C(=O)N[C@@H](C)C(=O)NCC(=O)NCC(=O)NCC(=O)N[C@@H](CC(C)C)C(=O)N[C@@H](CC(C)C)C(=O)NCC(=O)N[C@@H](C)C(=O)N[C@@H](CCCNC(=N)N)C(=O)N[C@@H](CCCCN)C(=O)N[C@@H](CCCCN)C(=O)N[C@@H](CCCCN)C(N)=O [HBPA-2] (Palmitoyl-AAAAGGGLLGARKKK-NH2) | 10^7
